Data set [1] concerns the target M. smegmatis DprE1 (DprE1/DprE2 epimerase) (Mycolicibacterium smegmatis, UniProt A0R607). The class given is biochemical.
In data set [2] the test system is Mtb. Nature of the data set: microbe, parasite or virus in culture. It is filed as cell-based, Mycobacterium tuberculosis. As to conditions: Mycobacterium tuberculosis, read-out: MIC (II).
For data set [3], the system named is Mtb. Nature of the data set: microbe, parasite or virus in culture. The class given is cell-based, Mycobacterium tuberculosis. As to conditions: for MIC: Mycobacterium tuberculosis, read-out: MIC (I).
In data set [4] the test system is Mtb. Nature of the data set: microbe, parasite or virus in culture. As to conditions: for MIC: Mycobacterium tuberculosis, read-out: MIC (III). It is filed as cell-based, Mycobacterium tuberculosis.
Data set [5] in a line: in vitro. As to conditions: African green monkey.
Data set [6] can be described thus: in vitro. As to conditions: human.
Data set [7] has as its system exponentially growing virulent Mtb. It is filed as cell-based, Mycobacterium tuberculosis.
Data set [8] relates to Mtb in J744.1 murine macrophage cells. Nature of the data set: microbe, parasite or virus in culture. It is filed as cell-based. The following applies: Mycobacterium tuberculosis, 120 h, read-out: MIC50, intracellular CFU assay.

In brackets after ≈: the same amount, converted by molar mass. Read-outs that look alike come from different tables or passages of the source.

Sequence of M. smegmatis DprE1 (DprE1/DprE2 epimerase) (A0R607 whole entry): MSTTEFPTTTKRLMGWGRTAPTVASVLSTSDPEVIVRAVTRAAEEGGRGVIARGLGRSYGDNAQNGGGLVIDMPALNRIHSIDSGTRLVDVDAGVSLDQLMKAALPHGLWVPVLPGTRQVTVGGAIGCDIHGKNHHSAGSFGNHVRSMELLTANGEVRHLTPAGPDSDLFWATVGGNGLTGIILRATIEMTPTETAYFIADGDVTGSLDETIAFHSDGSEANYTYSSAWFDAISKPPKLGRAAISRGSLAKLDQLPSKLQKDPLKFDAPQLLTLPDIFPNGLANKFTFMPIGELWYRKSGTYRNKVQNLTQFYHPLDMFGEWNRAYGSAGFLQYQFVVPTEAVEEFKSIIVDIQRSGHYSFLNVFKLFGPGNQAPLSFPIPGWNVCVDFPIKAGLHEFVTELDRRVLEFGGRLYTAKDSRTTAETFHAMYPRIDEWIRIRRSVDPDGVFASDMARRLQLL

As to `C[C@H]1COC2(CCN(c3nc(=O)c4cc(C(F)(F)F)cc([N+](=O)[O-])c4s3)CC2)O1` [BTZ043], the “inhibition of conversion of DPR to DPA by DprE1” value in data set [1] is on record as “potently inhibit”.
For `CCOC(=O)NC(=O)c1ccsc1NC(=O)c1nc2ccccc2s1` [Compound 1], the MIC was 1 to 3 µg/mL (≈ 2.66 to 7.99 µM) in the data set with Mtb [2], 1 to 3 µg/mL (≈ 2.66 to 7.99 µM) with Mtb [3] and more than 25 µg/mL in the data set on Mtb [4]. Moreover, the CC50 in the data set “in vitro [5]” and in the data set “in vitro [6]” was more than 50 µg/mL in each case.
`CCOC(=O)NC(=O)c1ccsc1NC(=O)c1cccc(NC(C)=O)c1` [Compound 3]: the MIC in the data set on Mtb [2] lay within 1 to 3 µg/mL (≈ 2.66 to 7.99 µM). The CC50 in the data set “in vitro [6]” is more than 50 µg/mL.
As to `CCOC(=O)NC(=O)c1ccsc1NC(=O)c1ccnc(NC(=O)OC(C)C)c1` [Compound 4], in the data set with Mtb [2], the MIC was 1 to 3 µg/mL (≈ 2.38 to 7.14 µM). The molecule also had a CC50 in “in vitro [6]” of more than 50 µg/mL.
For the molecule `CCOC(=O)NC(=O)c1ccsc1NC(=O)c1ccc2sc(C)nc2c1` [Compound 10], the MIC in the data set on Mtb [2] and in the data set with Mtb [3] was less than 1 µg/mL each time. The CC50 in “in vitro [5]” is 25 to 50 µg/mL (≈ 64.2 to 128 µM); in the data set “in vitro [6]” it was more than 50 µg/mL.
Consider `CCOC(=O)NC(=O)c1ccsc1NC(=O)c1cc2ccccn2n1` [Compound 11], for which, in the data set on Mtb [2], the MIC is 1 to 3 µg/mL (≈ 2.79 to 8.37 µM). For the same molecule, in “in vitro [6]”, the CC50 was more than 50 µg/mL.
The like results for `CCOC(=O)NC(=O)c1ccsc1NC(=O)c1ccnc(-n2cnnn2)c1` [Compound 12] were, in that order, 1 to 3 µg/mL (≈ 2.58 to 7.74 µM) and more than 50 µg/mL.
With `CCOC(=O)NC(=O)c1ccsc1NC(=O)c1ccnc(NC(C)=O)c1` [Compound 13], the MIC in the data set on Mtb [2] is less than 1 µg/mL. The molecule also returned a CC50 in “in vitro [6]” of more than 50 µg/mL.
The like results for `CCOC(=O)NC(=O)c1ccsc1NC(=O)c1nc2cc(Cl)ccc2s1` [Compound 52] were, in that order, less than 1 µg/mL and more than 50 µg/mL.
Turning to `CCOC(=O)NC(=O)c1ccsc1NC(=O)c1nc2cc(F)ccc2s1` [Compound 53], the MIC with Mtb [2] and in the data set on Mtb [3] was less than 1 µg/mL each time. The results for the CC50 in “in vitro [5]” and in “in vitro [6]” were less than 25 µg/mL and 25 to 50 µg/mL (≈ 63.5 to 127 µM), respectively.
Consider `CCOC(=O)NC(=O)c1ccsc1NC(=O)c1ccnc(NC(=O)C(C)(C)C)c1` [Compound 60], for which the MIC in the data set with Mtb [2] was less than 1 µg/mL; in the data set with Mtb [3], less than 1 µg/mL; in the data set with Mtb [4], more than 25 µg/mL. For the same molecule, the CC50 in the data set “in vitro [5]” and in the data set “in vitro [6]” was more than 50 µg/mL in each case.
For `CCOC(=O)NC(=O)c1ccsc1NC(=O)c1ccnc(NC(=O)OC)c1` [Compound 61], the MIC in the data set on Mtb [2] was less than 1 µg/mL; with Mtb [3], 1 to 3 µg/mL (≈ 2.55 to 7.65 µM); in the data set on Mtb [4] it was 5 to 25 µg/mL (≈ 12.7 to 63.7 µM). For the same molecule, the CC50 is more than 50 µg/mL in the data set “in vitro [5]” and 25 to 50 µg/mL (≈ 63.7 to 127 µM) in the data set “in vitro [6]”.
The corresponding values for `CCOC(=O)NC(=O)c1ccsc1NC(=O)c1nc2ccc(Cl)cc2[nH]1` [Compound 72] are more than 3 µg/mL, 1 to 3 µg/mL (≈ 2.55 to 7.64 µM), 5 to 25 µg/mL (≈ 12.7 to 63.6 µM), more than 50 µg/mL and more than 50 µg/mL.
The like results for `CCOC(=O)NC(=O)c1ccsc1NC(=O)c1cn2ccccc2n1` [Compound 76] were, in that order, more than 3 µg/mL, 1 to 3 µg/mL (≈ 2.79 to 8.37 µM), less than 5 µg/mL, more than 50 µg/mL and more than 50 µg/mL.
As to `CN1CCC(NC(=O)c2ccsc2NC(=O)c2nc3ccccc3s2)CC1` [Compound 255], in the data set on Mtb [3], the “MIC (I)” value was “C (key: A: <1 μg/mL; B: 1-3 μg/mL; C: >3 μg/mL)”. Further, the “MIC (III)” value against Mtb [4] is on record as “C (key: A: <5 μg/mL; B: 5-25 μg/mL; C: >25 μg/mL)”. The “LC50 (IV)” value with Vero cells is “A (key: A: >50 μg/mL; B: 50-25 μg/mL; C: <25 μg/mL)”.
The like results for `O=C(Nc1sccc1C(=O)N1CCN(C2CC2)CC1)c1nc2ccccc2s1` [Compound 256] were, in that order, “C (key: A: <1 μg/mL; B: 1-3 μg/mL; C: >3 μg/mL)”, “B (key: A: <5 μg/mL; B: 5-25 μg/mL; C: >25 μg/mL)” and “C (key: A: >50 μg/mL; B: 50-25 μg/mL; C: <25 μg/mL)”.
The like results for `O=C(Nc1sccc1C(=O)N1CCSCC1)c1nc2ccccc2s1` [Compound 261] were, in that order, “C (key: A: <1 μg/mL; B: 1-3 μg/mL; C: >3 μg/mL)”, “C (key: A: <5 μg/mL; B: 5-25 μg/mL; C: >25 μg/mL)” and “A (key: A: >50 μg/mL; B: 50-25 μg/mL; C: <25 μg/mL)”.
The corresponding values for `O=C(NC(=O)c1ccsc1NC(=O)c1nc2cnccc2s1)OC(c1ccccc1)C(F)(F)F` (stereo not shown) [Compound 304] are “B (key: A: <1 μg/mL; B: 1-3 μg/mL; C: >3 μg/mL)”, “C (key: A: <5 μg/mL; B: 5-25 μg/mL; C: >25 μg/mL)” and “B (key: A: >50 μg/mL; B: 50-25 μg/mL; C: <25 μg/mL)”.
As to `O=C(NC(=O)c1ccsc1NC(=O)c1cn2ccccc2n1)OC1CCCC1` [Compound 348], in the data set on Mtb [3], the “MIC (I)” value is reported as “C (key: A: <1 μg/mL; B: 1-3 μg/mL; C: >3 μg/mL)”. The “MIC (III)” value against Mtb [4] is “C (key: A: <5 μg/mL; B: 5-25 μg/mL; C: >25 μg/mL)”. In addition, the “LC50 (IV)” value in the data set with Vero cells is “B (key: A: >50 μg/mL; B: 50-25 μg/mL; C: <25 μg/mL)”.
The corresponding values for `CCOC(=O)NC(=O)c1ccsc1NC(=O)c1ccc2[nH]ncc2c1` [Compound 350] are “C (key: A: <1 μg/mL; B: 1-3 μg/mL; C: >3 μg/mL)”, “C (key: A: <5 μg/mL; B: 5-25 μg/mL; C: >25 μg/mL)” and “B (key: A: >50 μg/mL; B: 50-25 μg/mL; C: <25 μg/mL)”.
The corresponding values for `CC(C)OC(=O)NC(=O)c1ccsc1NC(=O)c1ccc2[nH]ncc2c1` [Compound 351] are “C (key: A: <1 μg/mL; B: 1-3 μg/mL; C: >3 μg/mL)”, “C (key: A: <5 μg/mL; B: 5-25 μg/mL; C: >25 μg/mL)” and “B (key: A: >50 μg/mL; B: 50-25 μg/mL; C: <25 μg/mL)”.
As to `CCOC(=O)NC(=O)c1ccsc1NC(=O)c1cnc2cc[nH]c2c1` [Compound 355], the “MIC (I)” value against Mtb [3] is listed as “C (key: A: <1 μg/mL; B: 1-3 μg/mL; C: >3 μg/mL)”. In addition, the “MIC (III)” value against Mtb [4] was “C (key: A: <5 μg/mL; B: 5-25 μg/mL; C: >25 μg/mL)”. Also, the “LC50 (IV)” value in the data set on Vero cells is reported as “B (key: A: >50 μg/mL; B: 50-25 μg/mL; C: <25 μg/mL)”.
The corresponding values for `CCOC(=O)NC(=O)c1ccsc1NC(=O)c1n[nH]c2ncccc12` [Compound 358] are “C (key: A: <1 μg/mL; B: 1-3 μg/mL; C: >3 μg/mL)”, “C (key: A: <5 μg/mL; B: 5-25 μg/mL; C: >25 μg/mL)” and “B (key: A: >50 μg/mL; B: 50-25 μg/mL; C: <25 μg/mL)”.
The like results for `CC(C)OC(=O)NC(=O)c1ccsc1NC(=O)c1n[nH]c2ncccc12` [Compound 359] were, in that order, “C (key: A: <1 μg/mL; B: 1-3 μg/mL; C: >3 μg/mL)”, “C (key: A: <5 μg/mL; B: 5-25 μg/mL; C: >25 μg/mL)” and “B (key: A: >50 μg/mL; B: 50-25 μg/mL; C: <25 μg/mL)”.
The corresponding values for `CCOC(=O)NC(=O)c1ccsc1NC(=O)c1ccc2[nH]nnc2c1` [Compound 363] are “C (key: A: <1 μg/mL; B: 1-3 μg/mL; C: >3 μg/mL)”, “C (key: A: <5 μg/mL; B: 5-25 μg/mL; C: >25 μg/mL)” and “B (key: A: >50 μg/mL; B: 50-25 μg/mL; C: <25 μg/mL)”.
Take `CC(C)OC(=O)NC(=O)c1ccsc1NC(=O)c1ccc2[nH]nnc2c1` [Compound 364]: the “MIC (I)” value in the data set with Mtb [3] is “B (key: A: <1 μg/mL; B: 1-3 μg/mL; C: >3 μg/mL)”. For the same molecule, the “MIC (III)” value against Mtb [4] was “C (key: A: <5 μg/mL; B: 5-25 μg/mL; C: >25 μg/mL)”. Also, the “LC50 (IV)” value with Vero cells is listed as “B (key: A: >50 μg/mL; B: 50-25 μg/mL; C: <25 μg/mL)”.
The corresponding values for `O=C(Nc1sccc1C(=O)NC(=O)N1CCOCC1)c1nc2ccccc2s1` [Compound 385] are “C (key: A: <1 μg/mL; B: 1-3 μg/mL; C: >3 μg/mL)”, “C (key: A: <5 μg/mL; B: 5-25 μg/mL; C: >25 μg/mL)” and “C (key: A: >50 μg/mL; B: 50-25 μg/mL; C: <25 μg/mL)”.
Consider `CCOC(=O)NC(=O)c1ccsc1NC(=O)c1nc2ccc(NC(=O)CNC(=O)OC(C)(C)C)cc2s1` [Compound 392], for which the “MIC (I)” value in the data set on Mtb [3] is reported as “B (key: A: <1 μg/mL; B: 1-3 μg/mL; C: >3 μg/mL)”. Besides, in the data set with Mtb [4], the “MIC (III)” value is on record as “C (key: A: <5 μg/mL; B: 5-25 μg/mL; C: >25 μg/mL)”. For the same molecule, in the data set on Vero cells, the “LC50 (IV)” value was “B (key: A: >50 μg/mL; B: 50-25 μg/mL; C: <25 μg/mL)”.
With `NNC(=O)c1ccncc1` [INH, isoniazid], the “drop in CFU compared with TCA1” value in [7] was “comparable drop in CFU over the first seven days”. Also, in data set [8], the MIC50 amounted to 0.2 µg/mL (≈ 1.46 µM).
For `CO[C@H]1/C=C/O[C@@]2(C)Oc3c(C)c(O)c4c(O)c(c(/C=N/N5CCN(C)CC5)c(O)c4c3C2=O)NC(=O)/C(C)=C\C=C\[C@H](C)[C@H](O)[C@@H](C)[C@@H](O)[C@@H](C)[C@H](OC(C)=O)[C@@H]1C` [RIF, rifampicin], the MIC50 in data set [8] was 2.7 µg/mL (≈ 3.28 µM).

Values taken from patent publication US20160194299A1 (priority 2013, published 2016).
